Data from patent EP1439177B1, “Antiviral activity and resolution of 2-hydroxymethyl-5-(5-fluorocytosin-1-yl)-1,3-oxathiolane” (Emory University, priority 1991, dated 1992).
Several values for one entry are separate records, joined by “and”; a condition that tells them apart may be missing. Equal entries are not always repeated. Where two headings read alike, the source gives them in different places.

Experiments:
[1] = test system: uninfected human PBM cells; experiment: Growth inhibition of mitogen-stimulated uninfected human PBM cells, trypan blue exclusion; format: cell-based; conditions: uninfected human PBM cells, 6 days; error estimated at ±10%; read-out: Cytotoxicity IC50
HIV-1 (strain LAV) = experiment: microbe, parasite or virus in culture; format: cell-based; conditions: Human immunodeficiency virus 1, PBMC; for inhibition at 0.001 µM / inhibition at 0.005 µM / inhibition at 0.01 µM / inhibition at 0.05 µM / inhibition at 0.1 µM / inhibition at 0.5 µM: read-out: % Inhibition (Corrected)
Description: It is often desirable to screen a number of racemic mixtures of nucleosides as a preliminary step to determine which warrant further resolution into enantiomerically enriched components and further evaluation of antiviral activity. The ability of nucleosides to inhibit HIV can be measured by various experimental techniques. The technique used herein, and described in detail below, measures the inhibition of viral replication in phytohemagglutinin (PHA) stimulated human peripheral blood mononuclear (PBM) cells infected with HIV-1 (strain LAV). The amount of virus produced is determined by measuring the virus-coded reverse transcriptase enzyme. The amount of enzyme produced is proportional to the amount of virus produced.
• A. Three-day-old phytohemagglutinin-stimulated PBM cells (10^6 cells/ml) from hepatitis B and HIV-1 seronegative healthy donors were infected with HIV-1 (strain LAV) at a concentration of about 100 times the 50% tissue culture infectious dose (TICD 50) per ml and cultured in the presence and absence of various concentrations of antiviral compounds. • B. Approximately one hour after infection, the medium, with the compound to be tested (2 times the final concentration in medium) or without compound, was added to the flasks (5 ml; final volume 10 ml). AZT was used as a positive control. • C. The cells were exposed to the virus (about 2 x 10^5 dpm/ml, as determined by reverse transcriptase assay) and then placed in a CO2 incubator. HIV-1 (strain LAV) was obtained from the Center for Disease Control, Atlanta, Georgia. The methods used for culturing the PBM cells, harvesting the virus and determining the reverse transcriptase activity were those described by McDougal et al. (J. Immun. Meth. 76, 171-183, 1985) and Spira et al. (J. Clin. Meth. 25, 97-99, 1987), except that fungizone was not included in the medium (see Schinazi, et al., Antimicrob. Agents Chemother. 32, 1784-1787 (1988); Id., 34:1061-1067 (1990)). • D. On day 6, the cells and supernatant were transferred to a 15 ml tube and centrifuged at about 900 g for 10 minutes. Five ml of supernatant were removed and the virus was concentrated by centrifugation at 40,000 rpm for 30 minutes (Beckman 70.1 Ti rotor). The solubilized virus pellet was processed for determination of the levels of reverse transcriptase. Results are expressed in dpm/ml of sampled supernatant. Virus from smaller volumes of supernatant (1 ml) can also be concentrated by centrifugation prior to solubilization and determination of reverse transcriptase levels.

[2] = Growth inhibition of mitogen-stimulated uninfected human PBM cells, trypan blue exclusion; format: cell-based; conditions: human, pbm cells
HIV-2 = experiment: microbe, parasite or virus in culture; conditions: Human immunodeficiency virus 2, PBMC
Experimental: Cell lines were obtained from either human donors, AIDS Research and Reference Reagent Program, NIH, Rockville, Maryland, ATCC, or the Red Cross. The CEM thymidine kinase deficient cells were prepared by sequential passage of CEM cells in the presence of 5-bromo-2'-deoxyuridine.

HBV = conditions: for inhibition of the replication of HBV: at the tested levels (Table 7, 10 µM); for INT[…] DNA RI: HBV DNA replication intermediates
Experimental: A summary and description of the assay for antiviral effects in this culture system and the analysis of HBV DNA has been described (Korba and Milman, 1991, Antiviral Res., 15:217). The antiviral evaluations were performed on two separate passages of cells. All wells, in all plates, were seeded at the same density and at the same time.
Due to the inherent variations in the levels of both intracellular and extracellular HBV DNA, only depressions greater than 3.5-fold (for HBV virion DNA) or 3.0-fold (for HBV DNA replication intermediates) from the average levels for these HBV DNA forms in untreated cells are considered to be statistically significant [P<0.05]. The levels of integrated HBV DNA in each cellular DNA preparation (which remain constant on a per cell basis in these experiments) were used to calculate the levels of intracellular HBV DNA forms, thereby ensuring that equal amounts of cellular DNA were compared between separate samples.

[3] = Toxicity analysis in 2.2.15 cells, neutral red dye uptake; format: cell-based, human; conditions: human, 2.2.15 cells
Experimental: (§1) Toxicity analyses were performed to assess whether any observed antiviral effects were due to a general effect on cell viability. The method used herein was the measurement of the uptake of neutral red dye, a standard and widely used assay for cell viability in a variety of virus-host systems, including HSV and HIV. Toxicity analyses were performed in 96-well flat bottomed tissue culture plates. Cells for the toxicity analyses were cultured and treated with test compounds with the same schedule as described for the antiviral evaluations below. Each compound was tested at 4 concentrations, each in triplicate cultures (wells "A", "B", and "C"). Uptake of neutral red dye was used to determine the relative level of toxicity. The absorbance of internalized dye at 510 nm (Asin) was used for the quantitative analysis. Values are presented as a percentage of the average Asin values in 9 separate cultures of untreated cells maintained on the same 96-well plate as the test compounds. Dye uptake in the 9 control cultures on plate 5 ranged from 91.6% to 110.4%, and on plate 6 from 96.6% to 109%.

2.2.15 cells = experiment: as above; format: cell-based, human; conditions: 330 µM
Experimental: as §1

HIV = experiment: microbe, parasite or virus in culture; format: cell-based; conditions: Human immunodeficiency virus 1; MT4 system
[4] = test system: granulocyte-macrophage precursor cells; conditions: compared with the (+)-enantiomer and AZT; Figure 12
[5] = read-out: DYE UPTAKE (% OF CONTROL) WELL A
[6] = read-out: DYE UPTAKE (% OF CONTROL) WELL C
[7] = read-out: DYE UPTAKE (% OF CONTROL) WELLB

Compound: Nc1nc(=O)n([C@H]2CS[C@@H](CO)O2)cc1I [DLS-026]
- CC50 [1]: > 100000 nM

Compound: CC(=O)Nc1nc(=O)n([C@@H]2CS[C@H](CO)O2)cc1F (racemic) [N^4-acetyl derivative of (±)-FTC]
- EC50 (HIV-1 (strain LAV)): 0.0028 µM

Compound: Nc1nc(=O)n([C@H]2CS[C@@H](CO)O2)cc1Br [DLS-021]
- CC50 [1]: > 100000 nM

Compound: Nc1nc(=O)n([C@H]2CS[C@@H](CO)O2)cc1F [(+)-FTC, (+)-β-D-2-hydroxymethyl-5-(5-fluorocytosin-1-yl)-1,3-oxathiolane]
- inhibition at 0.001 µM (HIV-1 (strain LAV)): 3.8%
- inhibition at 0.005 µM (HIV-1 (strain LAV)): -10.6%
- inhibition at 0.01 µM (HIV-1 (strain LAV)): -1.8%
- inhibition at 0.05 µM (HIV-1 (strain LAV)): 11.8%
- inhibition at 0.1 µM (HIV-1 (strain LAV)): 12.7%
- inhibition at 0.5 µM (HIV-1 (strain LAV)): 71.4%
- EC50 (HIV-1 (strain LAV); read-out: Antiviral EC50): 0.84 µM
- EC50 (HIV-1 (strain LAV); read-out: EC50): 0.84 µM
- EC50 (HIV-1 (strain LAV); read-out: EC50:µM): 0.28 µM
- CC50 at 144 h [2]: > 100000 nM
- EC50 (HIV-2): 26 nM
- HBV VIRION DNA DAY 0 (HBV; 10 µM, replicate wells): 58 pg/ml Culture Medium
- HBV Virion DNA DAY 9 (HBV; 10 µM, day 9, sensitivity cutoff 0.1 pg/ml, replicate wells): 0.1 pg/ml Culture Medium
- inhibition of the replication of HBV (HBV): significantly inhibited
- viability at 10 µM [3, 5]: 90.9%
- viability at 10 µM [3, 6]: 90.5%
- viability at 10 µM [3, 7]: 99.4%
- viability at 30 µM [3, 5]: 81.1%
- viability at 30 µM [3, 6]: 88.1%
- viability at 30 µM [3, 7]: 88.3%
- viability at 100 µM [3, 5]: 77.7%
- viability at 100 µM [3, 6]: 72.1%
- viability at 100 µM [3, 7]: 66.3%
- viability at 300 µM [3, 5]: 43.4%
- viability at 300 µM [3, 6]: 58.5%
- viability at 300 µM [3, 7]: 56.7%
- toxicity at the highest concentration used for the toxicity tests (2.2.15 cells): appeared to be toxic

Compound: Cc1cn(C2CSC(CO)O2)c(=O)[nH]c1=O (stereo not shown) [DLS-010]
- CC50 [1]: > 100000 nM

Compound: CCCC(=O)OC[C@@H]1O[C@H](n2cc(F)c(N)nc2=O)CS1 (racemic) [5'-O-butyrate ester of (±)-FTC]
- EC50 (HIV-1 (strain LAV)): 0.0017 µM
- EC50 (HIV): 40 nM

Compound: O=c1[nH]c(=O)n([C@H]2CS[C@@H](CO)O2)cc1Cl [DLS-028]
- CC50 [1]: > 100000 nM

Compound: Nc1nc(=O)n([C@@H]2CS[C@H](CO)O2)cc1C(F)(F)F [DLS-053]
- CC50 [1]: > 100000 nM

Compound: Cc1cn([C@H]2CS[C@@H](CO)O2)c(=O)nc1N [DLS-011]
- CC50 [1]: > 100000 nM

Compound: Nc1nc(=O)n([C@@H]2CS[C@H](CO)O2)cc1F (single isomer, unassigned) [(-)-FTC, (-)-β-L-2-hydroxymthyl-5-(5-fluorocytosin-1-yl)-1,3-oxathiolane]
- inhibition at 0.001 µM (HIV-1 (strain LAV)): 23.8%
- inhibition at 0.005 µM (HIV-1 (strain LAV)): 43.3%
- inhibition at 0.01 µM (HIV-1 (strain LAV)): 24.8%
- inhibition at 0.05 µM (HIV-1 (strain LAV)): 76.2%
- inhibition at 0.1 µM (HIV-1 (strain LAV)): 93.5%
- inhibition at 0.5 µM (HIV-1 (strain LAV)): 97.6%
- EC50 (HIV-1 (strain LAV); read-out: Antiviral EC50): 0.008 µM
- EC50 (HIV-1 (strain LAV); read-out: EC50): 0.0077 µM
- EC50 (HIV-1 (strain LAV); read-out: EC50:µM): 0.02 µM
- CC50 at 144 h [2]: > 100000 nM
- EC50 (HIV-2): 0.7 nM
- HBV VIRION DNA DAY 0 (HBV; 0.25 µM, replicate wells): 89 pg/ml CULTURE MEDIUM
- HBV VIRION DNA DAY 4 (HBV; 0.25 µM, replicate wells): 15 pg/ml CULTURE MEDIUM
- INT[…] DNA RI (HBV; 1 µM, 24 hours following the 9th day of treatment): 2 pg/µg CELL DNA and 3 pg/µg CELL DNA and 4 pg/µg CELL DNA
- HBV VIRION DNA DAY 0 (HBV; 1 µM, replicate wells): 89 pg/ml CULTURE MEDIUM
- HBV VIRION DNA DAY 4 (HBV; 1 µM, replicate wells): 15 pg/ml CULTURE MEDIUM and 22 pg/ml CULTURE MEDIUM
- INT[…] DNA MONO. (HBV; 1 µM, episomal 3.2 kb HBV genomes, 24 hours following the 9th day of treatment): 1.7 pg/µg CELL DNA and 1.4 pg/µg CELL DNA
- INT[…] DNA RI (HBV; 4 µM, 24 hours following the 9th day of treatment): 1 pg/µg CELL DNA and 2 pg/µg CELL DNA
- inhibition of the replication of HBV (HBV): significantly inhibited
- viability at 10 µM [3, 5]: 94.3%
- viability at 10 µM [3, 6]: 92.2%
- viability at 10 µM [3, 7]: 94.9%
- viability at 30 µM [3, 5]: 98.7%
- viability at 30 µM [3, 6]: 96.4%
- viability at 30 µM [3, 7]: 94.3%
- viability at 100 µM [3, 5]: 64.1%
- viability at 100 µM [3, 6]: 77.6%
- viability at 100 µM [3, 7]: 66.6%
- viability at 300 µM [3, 5]: 53%
- viability at 300 µM [3, 6]: 51.5%
- viability at 300 µM [3, 7]: 51.1%
- toxicity at the highest concentration used for the toxicity tests (2.2.15 cells): appeared to be toxic
- toxicity (IC50) on colony formation [4]: less toxic

Compound: Nc1nc(=O)n([C@H]2CS[C@@H](CO)O2)cc1Cl [DLS-023]
- CC50 [1]: > 100000 nM
